Results as given in ChEMBL document CHEMBL1157885, “The discovery and structure-activity relationships of 2-(piperidin-3-yl)-1H-benzimidazoles as selective, CNS penetrating H1-antihistamines for insomnia” (Bioorg Med Chem Lett, 2010).

Columns and labels:
[1] = target: T1, Voltage-gated inwardly rectifying potassium channel KCNH2 (Homo sapiens, UniProt Q12809); assay: Displacement of [3H]dofetolide from human ERG channel expressed in HEK293 cells by liquid scintillation counting; format: cell-based
T1 sequence (Q12809 whole entry): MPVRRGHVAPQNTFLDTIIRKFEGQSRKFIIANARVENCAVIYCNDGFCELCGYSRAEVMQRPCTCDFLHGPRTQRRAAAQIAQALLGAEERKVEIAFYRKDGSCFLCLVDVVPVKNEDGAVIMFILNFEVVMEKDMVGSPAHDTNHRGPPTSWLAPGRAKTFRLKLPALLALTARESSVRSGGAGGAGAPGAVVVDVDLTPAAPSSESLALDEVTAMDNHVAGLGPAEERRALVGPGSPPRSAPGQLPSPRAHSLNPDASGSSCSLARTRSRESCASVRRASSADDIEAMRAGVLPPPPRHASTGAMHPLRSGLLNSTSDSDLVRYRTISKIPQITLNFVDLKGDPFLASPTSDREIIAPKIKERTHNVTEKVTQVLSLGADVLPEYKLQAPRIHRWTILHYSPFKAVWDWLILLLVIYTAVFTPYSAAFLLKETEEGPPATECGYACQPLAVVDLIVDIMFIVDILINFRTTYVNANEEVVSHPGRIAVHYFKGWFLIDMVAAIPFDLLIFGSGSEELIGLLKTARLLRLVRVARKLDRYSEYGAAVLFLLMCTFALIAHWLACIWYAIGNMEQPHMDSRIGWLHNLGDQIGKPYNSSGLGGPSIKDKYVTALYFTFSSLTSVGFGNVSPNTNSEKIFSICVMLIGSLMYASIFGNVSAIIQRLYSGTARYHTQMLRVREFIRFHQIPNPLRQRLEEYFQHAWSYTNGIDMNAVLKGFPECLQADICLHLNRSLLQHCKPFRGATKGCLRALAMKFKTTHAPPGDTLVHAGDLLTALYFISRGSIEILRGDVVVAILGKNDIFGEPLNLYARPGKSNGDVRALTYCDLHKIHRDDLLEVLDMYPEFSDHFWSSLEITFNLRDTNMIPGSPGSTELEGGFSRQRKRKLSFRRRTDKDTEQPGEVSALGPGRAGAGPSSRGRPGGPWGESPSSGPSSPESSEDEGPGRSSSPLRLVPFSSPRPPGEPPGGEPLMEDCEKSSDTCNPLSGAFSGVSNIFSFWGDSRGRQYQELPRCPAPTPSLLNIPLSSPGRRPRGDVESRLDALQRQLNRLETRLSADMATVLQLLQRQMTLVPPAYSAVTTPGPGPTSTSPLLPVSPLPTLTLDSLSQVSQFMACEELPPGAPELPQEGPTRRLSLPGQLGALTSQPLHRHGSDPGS

[2] = target: Cytochrome P450 3A4 (Homo sapiens, UniProt P08684); assay: (§1) Inhibition of CYP3A4; format: ADME
Cytochrome P450 3A4, sequence (P08684 whole entry): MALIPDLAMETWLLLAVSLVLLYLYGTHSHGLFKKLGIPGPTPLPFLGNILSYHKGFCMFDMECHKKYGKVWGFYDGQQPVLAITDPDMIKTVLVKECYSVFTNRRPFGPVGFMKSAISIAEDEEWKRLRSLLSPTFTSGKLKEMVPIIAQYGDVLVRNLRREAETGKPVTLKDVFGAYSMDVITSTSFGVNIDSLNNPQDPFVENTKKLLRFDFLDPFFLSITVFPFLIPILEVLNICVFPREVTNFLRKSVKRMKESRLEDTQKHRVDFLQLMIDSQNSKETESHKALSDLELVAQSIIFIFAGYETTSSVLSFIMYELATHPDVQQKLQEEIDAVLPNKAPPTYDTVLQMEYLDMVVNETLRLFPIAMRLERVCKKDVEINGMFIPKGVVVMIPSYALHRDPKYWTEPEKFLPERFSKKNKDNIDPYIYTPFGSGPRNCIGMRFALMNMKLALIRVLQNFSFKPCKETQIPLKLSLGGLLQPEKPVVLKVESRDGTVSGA

[3] = target: Histamine H1 receptor (Homo sapiens, UniProt P35367); assay: Displacement of [3H]pyrilamine from human histamine H1 receptor expressed in CHO Flp-In cells by liquid scintillation counting; format: cell-based
Histamine H1 receptor, sequence (P35367 whole entry): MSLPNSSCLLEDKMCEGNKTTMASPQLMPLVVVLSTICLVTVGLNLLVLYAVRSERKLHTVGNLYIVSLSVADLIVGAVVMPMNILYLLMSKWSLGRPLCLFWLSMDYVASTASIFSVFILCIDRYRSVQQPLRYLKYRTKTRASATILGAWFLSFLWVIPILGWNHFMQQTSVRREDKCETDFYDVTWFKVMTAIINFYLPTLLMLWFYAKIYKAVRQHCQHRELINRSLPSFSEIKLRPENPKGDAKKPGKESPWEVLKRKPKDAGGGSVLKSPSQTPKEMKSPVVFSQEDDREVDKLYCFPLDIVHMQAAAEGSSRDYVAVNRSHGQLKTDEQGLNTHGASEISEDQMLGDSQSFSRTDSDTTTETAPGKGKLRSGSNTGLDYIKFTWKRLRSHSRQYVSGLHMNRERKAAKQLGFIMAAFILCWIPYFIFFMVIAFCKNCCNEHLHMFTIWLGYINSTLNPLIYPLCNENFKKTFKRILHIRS

[4] = target: Cytochrome P450 2D6 (Homo sapiens, UniProt P10635); assay: Inhibition of CYP2D6; format: ADME
Cytochrome P450 2D6, sequence (P10635 whole entry): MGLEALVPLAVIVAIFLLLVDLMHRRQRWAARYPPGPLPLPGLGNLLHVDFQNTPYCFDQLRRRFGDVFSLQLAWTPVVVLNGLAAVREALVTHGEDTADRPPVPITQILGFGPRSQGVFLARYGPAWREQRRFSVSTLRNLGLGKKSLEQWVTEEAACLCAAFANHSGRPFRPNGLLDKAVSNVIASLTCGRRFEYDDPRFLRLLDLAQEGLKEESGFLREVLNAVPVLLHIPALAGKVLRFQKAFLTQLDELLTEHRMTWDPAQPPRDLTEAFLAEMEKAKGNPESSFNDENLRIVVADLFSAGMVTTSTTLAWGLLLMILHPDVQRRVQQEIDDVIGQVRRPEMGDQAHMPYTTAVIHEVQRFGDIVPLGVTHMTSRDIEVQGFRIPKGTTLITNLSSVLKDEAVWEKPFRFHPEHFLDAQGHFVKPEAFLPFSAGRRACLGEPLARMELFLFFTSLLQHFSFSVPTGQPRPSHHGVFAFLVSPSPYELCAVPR

[5] = test system: Liver microsomes; assay: Metabolic stability in human liver microsomes; format: ADME, Microsome
[6] = target: T2, Muscarinic acetylcholine receptor M1 (Homo sapiens, UniProt P11229); assay: Displacement of [3H]N-methyl Scopolamine from human muscarinic M1 receptor expressed in CHO Flp-In cells by liquid scintillation counting; format: cell-based
T2 sequence (P11229 whole entry): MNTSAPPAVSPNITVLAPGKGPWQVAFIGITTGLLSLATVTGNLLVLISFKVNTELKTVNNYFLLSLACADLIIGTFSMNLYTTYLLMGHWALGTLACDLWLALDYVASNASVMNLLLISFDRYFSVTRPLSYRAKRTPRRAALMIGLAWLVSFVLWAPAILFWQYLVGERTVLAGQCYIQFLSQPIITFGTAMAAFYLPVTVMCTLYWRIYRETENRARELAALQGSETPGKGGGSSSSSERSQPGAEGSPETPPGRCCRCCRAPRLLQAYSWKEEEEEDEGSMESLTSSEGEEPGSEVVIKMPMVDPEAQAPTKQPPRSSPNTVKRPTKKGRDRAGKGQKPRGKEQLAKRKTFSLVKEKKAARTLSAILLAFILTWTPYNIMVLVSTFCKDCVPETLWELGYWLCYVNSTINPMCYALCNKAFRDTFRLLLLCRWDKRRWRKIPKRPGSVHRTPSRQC

[7] = target: T1, Voltage-gated inwardly rectifying potassium channel KCNH2; assay: Inhibition of human ERG channel by electrophysiology assay
[8] = target: hERG (KCNH2) (Homo sapiens, UniProt Q12809); assay: Inhibition of human ERG channel at 10 uM by patch clamp assay
hERG (KCNH2), sequence (Q12809 whole entry): as the sequence (Q12809 whole entry) above

[9] = target: T1, Voltage-gated inwardly rectifying potassium channel KCNH2; assay: Inhibition of human ERG channel by patch clamp assay
[10] = target: CYP3A4 (Homo sapiens, UniProt P08684); assay: as §1; format: ADME
CYP3A4, sequence (P08684 whole entry): as the sequence (P08684 whole entry) above

[11] = Solubility in 0.15 M KCl buffer at pH 7.4 by potentiometric method; format: physicochemical

IC50 [2]	Structure (SMILES)	Ki [1]	other results
> 5 µM	COc1ccc(Cn2c(C3CCCN(C(C)C)C3)nc3ccccc32)cc1 (configuration not stated)	2.65 µM	–
> 5 µM	Fc1ccc(Cn2c(C3CCCN(C4CCCCC4)C3)nc3ccccc32)cc1 (configuration not stated)	0.926 µM	–
> 5 µM	CC(C)N1CCCC(c2nc3ccccc3n2Cc2ccc(F)cc2)C1 (configuration not stated)	1.37 µM	–
> 5 µM	CCOCCn1c(C2CCCN(C3CCOCC3)C2)nc2ccccc21 (configuration not stated)	> 3 µM	–
> 5 µM	COc1ccc(Cn2c(C3CCCN(C)C3)nc3ccccc32)cc1 (configuration not stated)	> 5 µM	–
> 5 µM	COc1ccc(Cn2c(N3CC[C@@H](N(C)C)C3)nc3ccccc32)cc1	–	Ki [3]: 0.0084 µM; IC50 [4]: > 10 µM; Stability [5]: Stable; Ki [6]: 2.5 µM; IC50 [7]: 0.233 µM
> 5 µM	Cc1csc(Cn2c(C3CCCN(C4CCOCC4)C3)nc3ccccc32)n1 (configuration not stated)	> 3 µM	–
> 5 µM	COc1ccc(Cn2c(C3CCCN(C4CCOCC4)C3)nc3ccccc32)cc1 (configuration not stated)	> 10 µM	–

Further lines, the molecule ahead of its results:

Structure (SMILES)	IC50 [2]	Ki [1]	other results
CCOCCn1c(C2CCCN(C3CCCCC3)C2)nc2ccccc21 (configuration not stated)	> 5 µM	> 10 µM	–
CN1CCC[C@H](c2nc3ccccc3n2Cc2ccccn2)C1	–	> 10 µM	inhibition (INH) [2]: Not Active
CCOCCn1c([C@H]2CCCN(C)C2)nc2ccccc21	–	–	inhibition (INH) [2]: Not Active
CCOCCn1c(N2CC[C@H](N(C)C)C2)nc2ccccc21	> 5 µM	–	Ki [3]: 0.0048 µM; IC50 [4]: > 10 µM; Stability [5]: Stable; Ki [6]: 1.5 µM; IC50 [7]: 0.021 µM
CN1CCCC(c2nc3ccccc3n2Cc2ccccn2)C1 (configuration not stated)	> 5 µM	> 10 µM	–
CN1CCCC(c2nc3ccccc3n2CC2CCCO2)C1 (configuration not stated)	> 5 µM	0.638 µM	–
Cc1csc(Cn2c(C3CCCN(C4CCCCC4)C3)nc3ccccc32)n1 (configuration not stated)	> 5 µM	1.18 µM	–
CN1CCC[C@@H](c2nc3ccccc3n2Cc2ccccn2)C1	–	10.3 µM	inhibition (INH) [2]: Not Active; inhibition at 10 µM [8]: 39%
CCOCCn1c([C@@H]2CCCN(C3CCOCC3)C2)nc2ccccc21	–	> 3 µM	inhibition (INH) [2]: Not Active; IC50 [9]: 2.1 µM
CN1CCCC(c2nc3ccccc3n2CCOc2ccccc2)C1 (configuration not stated)	> 5 µM	–	–
CCOCCn1c(C2CCCN(C)C2)nc2ccccc21 (configuration not stated)	> 5 µM	–	–
CN(CC1CCOCC1)C1CCN(c2nc3ccccc3n2Cc2ccc(F)cc2)CC1	–	–	IC50 [10]: > 5 µM; Ki [6]: 4.8 µM
COc1ccc(Cn2c(C3CCCN(C4CCCCC4)C3)nc3ccccc32)cc1 (configuration not stated)	–	1.84 µM	–
Cc1csc(Cn2c(C3CCCN(C)C3)nc3ccccc32)n1 (configuration not stated)	> 5 µM	> 10 µM	–
CCOCCn1c([C@@H]2CCCN(C)C2)nc2ccccc21	–	–	inhibition (INH) [2]: Not Active
Cc1cnn(C2CCN(c3nc4ccccc4n3Cc3ccc(F)cc3)CC2)c1	–	–	solubility [11]: < 10 µg/mL
